Assay results taken from patent US8227431B2, “Nucleoside derivatives” (Hetero Drugs Limited, priority 2008, dated 2012).

Assays:
[1] = Cell viability assay (MTT); type: cell-based; conditions: human, Supt-1 cells, Cell line Supt-1, about 14 hours incubation, read-out: Cytotoxicity concentration (CC50)
Procedure: Reduction of 3-(4,5-dimethylthiozol-2-yl)-2,5-diphenyltetrazolium bromide (MTT, sigma) is chosen as an optimal mend point of cell viability measurement (Mosmann, 1983; Cole, 1986; alley et al., 1988). Cells (0.2×10^6 cells per well) were seeded in 96-well plates. Increasing concentrations of compound were added to the cells and incubated at 37° C. for about 14 hours in a CO2 Incubator with 5% CO2. The media was replaced with a fresh growth medium along with 20 μL of 5 mg/ml 3-(4,5-dimethylthiazol-2-yl)-2,5-diphenyltetrazolium bromide (MTT, Sigma). After incubation for about 4 hours in a humidified atmosphere, the media was removed and 200 μL of 0.1N acidic isopropyl alcohol was added to the wells to dissolve the MTT-formazan crystals. The absorbance was recorded at 570 nm, immediately after the development of purple colour. Each experiment was conducted in triplicate and the data are represented as average, with standard deviation. Percent viability of the cells was computed with reference to the absorbance of reduced MTT in the experiments conducted in absence of any compound. The above described examples were tested in the two biological assays as described above and some compounds were found following results as shown in table 2. Cell line Supt-1; Virus: HIV-1-93IN101

[2] = test system: HIV-1-93IN101; assay: P24 assay (viral p24 ELISA); type: cell-based; conditions: Cell line Supt-1, Virus HIV-1-93IN101; for IC50: Human immunodeficiency virus 1, SUP-T1, p24 ELISA about 72 hours post infection, read-out: Inhibitory concentration 50 (IC50)
Procedure: Viral p24 was measured after about 72 hours of post infection in presence of drugs using ABL p24 ELISA kit. 0.5 millions cells/well were taken into the 24 well plates and added increasing concentrations of drugs. 1 ng/ml of HIV-1 virus was added to each well and incubated for overnight at 37° C. (37° C. and 5% CO2). After about 16 hours incubation media was changed and added fresh media and cultured for about 72 hours. P24 was quantified at 4th day of post-infection using ABL kit according to manufacturer's instructions. The above described examples were tested in the two biological assays as described above and some compounds were found following results as shown in table 2. Cell line Supt-1; Virus: HIV-1-93IN101

Compound	CC50 [1] [µM]	Therapeutic Index (TI): CC50/IC50 [2]	IC50 [2] [µM]
C[C@]1(F)C(n2cnc3c(N)ncnc32)O[C@H](CO)[C@]1(C)O (stereo partly drawn) [Example 2A, (2R,3S,4R)-5-(6-amino-9H-purin-9-yl)-4-fluoro-tetrahydro-2-(hydroxymethyl)-3,4-dimethylfuran-3-ol]	> 1000	>1	> 1000
CC1(O)[C@@H](CO)OC(n2cnc3c(NC4CC4)ncnc32)[C@]1(C)F (stereo partly drawn) [Example 16, (2R,4R)-5-(6-(cyclopropylamino)-9H-purin-9yl)-4-fluoro-tetrahydro-2-(hydroxymethyl)-3,4-dimethylfuran-3-ol]	424	1.4	300
C[C@]1(F)[C@H](n2ccc(=O)[nH]c2=O)O[C@H](CO)[C@@]1(C)O [Example 22, 1-((2R,4R)-3-fluoro-tetrahydro-4-hydroxy-5-(hydroxymethyl)-3,4-dimethylfuran-2-yl)pyrimidine-2,4(1H,3H)-dione]	> 1000	>1	> 1000
C[C@]1(F)[C@H](n2ccc(N)nc2=O)O[C@H](CO)[C@@]1(C)O [Example 23, 4-amino1-((2R,4R)-3-fluoro-tetrahydro-4-hydroxy-5-(hydroxymethyl)-3,4-dimethylfuran-2-yl)pyrimidin-2(1H)-one]	> 1000	>1	> 1000
